Each block holds one compound with its values, some of them ahead of it.
Assay: solvent given as SMILES

absorption maximum (in C1COCCO1): 378 nm
SMILES: COc1ccc(C2=N/C(=C\c3ccccc3)C(=O)O2)cc1OC

absorption maximum (in ClCCl): 607 nm
SMILES: Cc1cc(C)c(-c2c3ccccc3c3ccc4cc5c(-c6c(C)cc(C)cc6C)c6ccccc6c6ccc7cc2c3c4c7c56)c(C)c1

absorption maximum (in O): 430 nm
SMILES: CC(=O)Nc1ccc2c(c1)c(=O)c1cc(NC(C)=O)ccc1n2CCCCCC(=O)O

absorption maximum (in ClCCl): 372 nm
SMILES: CC(=O)c1c(N[C@@H](CS)C(=O)O)c2ccc(N(C)C)cc2oc1=O

absorption maximum (in C1CCOC1): 411.11 nm
SMILES: CCN(CC)c1ccc(-c2nc3c4ccccc4n(C)c3nc2-c2ccc([B-](F)(c3c(C)cc(C)cc3C)c3c(C)cc(C)cc3C)cc2)cc1

absorption maximum (in ClCCl): 534 nm
SMILES: CC1=C(I)C(C)=[N+]2C1=C(c1c(-c3ccccn3)nc3ccccn13)c1c(C)cc(C)n1[B-]2(F)F

absorption maximum (in CCO): 442 nm
SMILES: Nc1cc2nc3cc(Cl)c(Cl)cc3nc2cc1N

absorption maximum (in C1CCOC1): 360 nm
SMILES: F[B-]1(F)OC(c2ccccc2)=C(c2ccccc2)c2sc3ccccc3[n+]21

absorption maximum (in ClCCl): 360 nm
SMILES: CCn1c2c(-c3cccs3)cc(C(C)(C)C)cc2c2cc(C(C)(C)C)cc(-c3cccs3)c21

absorption maximum (in ClCCl): 479 nm
SMILES: Cc1cc(C)c(C2=C3C=C(/C=C/C(=O)OC(C)(C)C)C=[N+]3[B-](F)(F)n3c2ccc3N2CCCC2)c(C)c1

absorption maximum (in CC#N): 362 nm
SMILES: O=C(O)c1ccc(-c2ccc(-c3nc(-c4ccccc4)c4ccccn34)cc2)s1

absorption maximum (in ClCCl): 352 nm
SMILES: CN(C)c1ccc(C#Cc2ccc(-c3cc(N(C)C)c4ccccc4c3)cc2)cc1

absorption maximum (in C1COCCO1): 370 nm
SMILES: COC(=O)c1ccc(/C=C2\N=C(c3ccccc3)OC2=O)cc1

absorption maximum (in ClCCl): 466 nm
SMILES: CCCCN(CCCC)c1ccc2c(c1)C#CC#Cc1cc(N(CCCC)CCCC)ccc1C#Cc1cc(c3cc1C#Cc1ccc(C(F)(F)F)cc1C#CC#Cc1cc(C(F)(F)F)ccc1C#C3)C#C2

absorption maximum (in ClC(Cl)Cl): 421 nm
SMILES: F[B-]1(F)OC(c2ccc(N3CCCCC3)cc2)=Cc2cccc[n+]21

absorption maximum (in CCO): 442 nm
SMILES: Nc1cc2nc3cc(Br)c(Br)cc3nc2cc1N

absorption maximum (in C1CCOC1): 342 nm
SMILES: F[B-]1(F)Oc2c(-c3cccc4c3O[B-](F)(F)[n+]3c(-c5ccccc5)c(-c5ccccc5)n(-c5ccc(C(F)(F)F)cc5)c3-4)cccc2-c2n(-c3ccc(C(F)(F)F)cc3)c(-c3ccccc3)c(-c3ccccc3)[n+]21

absorption maximum (in CO): 568 nm
SMILES: C#CCOc1ccc(/C=C/C2=[N+]3C(=C(c4ccc(N5CCCCC5)cc4)c4c(C)cc(C)n4[B-]3(F)F)C(C)=C2)cc1

absorption maximum (in C1COCCO1): 310 nm
SMILES: CCC1=C(C2=C(C3=C(CC)S(=O)(=O)c4ccccc43)C(F)(F)C(F)(F)C2(F)F)c2ccccc2S1(=O)=O

absorption maximum (in ClCCl): 410 nm
SMILES: CCN(CC)c1ccc2cc(-c3nc4c5cccc6ccc7cccc(c7c65)c4n3-c3ccc(C(C)(C)C)cc3)c(=O)oc2c1

absorption maximum (in ClCCl): 464 nm
SMILES: CN(C)c1ccc(C2=C3C=C(c4ccc(C=O)cc4)S[C@]34c3ccccc3[C@H]2c2ccccc24)cc1

absorption maximum (in ClCCl): 649 nm
SMILES: Cc1ccc(-c2c3nc(c(-c4ccc(C)cc4)c4ccc([nH]4)c(-c4ccc(OC(=O)C(C)c5ccc(CC(C)C)cc5)cc4)c4nc(c(-c5ccc(C)cc5)c5ccc2[nH]5)C=C4)C=C3)cc1 (configuration not stated)

absorption maximum (in C1CCCCC1): 563.5 nm
absorption maximum (in CC#N): 553 nm
absorption maximum (in CCO): 559 nm
absorption maximum (in CCOC(C)=O): 556.5 nm
absorption maximum (in CO): 557.5 nm
absorption maximum (in OCC(F)(F)F): 553 nm
SMILES: Cc1ccc(C2=C3C=C(I)C=[N+]3[B-](F)(F)n3c2cc(I)c3I)cc1

absorption maximum (in C1CCOC1): 330 nm
SMILES: c1ccc(C2=C(c3ccccc3)[Si](c3ccccc3)(c3ccccc3)c3ccccc32)cc1

The next lines start with the compound.

SMILES: CNc1cccc2c1C(=O)c1ccccc1C2=O
absorption maximum (in C1CCC2CCCCC2C1): 488 nm
absorption maximum (in C1CCCCC1): 488 nm
absorption maximum (in CC1CCCCC1): 489 nm
absorption maximum (in CC#N): 501 nm
absorption maximum (in CCC(C)CC): 487 nm
absorption maximum (in CCCCCC): 487 nm
absorption maximum (in CCOC(C)=O): 497.5 nm

SMILES: CCCCCCCCC(=O)Oc1cc2[nH]c(cc2CCOC)c2nc(ccc3[nH]c(cc3CCOC)c3nc1C(CCOC)=C3)C(CCOC)=C2
absorption maximum (in Cc1ccccc1): 647 nm

SMILES: F[B-]1(F)n2c(cc3sc4ccccc4c32)C(c2ccc(I)cc2)=C2C=c3sc4ccccc4c3=[N+]21
absorption maximum (in ClC(Cl)Cl): 658 nm

SMILES: COc1ccc(/C=C/c2cc(/C=C/c3ccc(OC)cc3)nc(/C=C/c3ccc(OC)cc3)n2)cc1
absorption maximum (in ClCCl): 339 nm

SMILES: Cc1cccc(C)c1
absorption maximum (in C1CCCCC1): 259.74 nm

SMILES: CCCc1ccc2c(c1)cc1n2B2c3c4c-1cccc4cc1cccc(c31)-c1cc3cc(CCC)ccc3n12
absorption maximum (in C1CCOC1): 537 nm

SMILES: CCCCCCCCCC1(CCCCCCCCC)c2cc(C#Cc3ccc(/C=C/c4ccc(N(CCCCCCCC)CCCCCCCC)cc4)cc3)ccc2-c2ccc(C#Cc3ccc(/C=C/c4ccc(N(CCCCCCCC)CCCCCCCC)cc4)cc3)cc21
absorption maximum (in Cc1ccccc1): 411 nm

SMILES: c1ccc(N(c2ccccc2)c2cc3c4c(c2)N(c2ccccc2)c2cc5c(cc2B4c2ccccc2N3c2ccccc2)B2c3ccccc3N(c3ccccc3)c3cc(N(c4ccccc4)c4ccccc4)cc(c32)N5c2ccccc2)cc1
absorption maximum (in Cc1ccccc1): 457 nm

SMILES: CCN(CC)c1ccc([N+]2=Cc3ccc4c5c(ccc4c3O[B-]2(c2ccccc2)c2ccccc2)C=[N+](c2ccc(N(CC)CC)cc2)[B-](c2ccccc2)(c2ccccc2)O5)cc1
absorption maximum (in Cc1ccccc1): 558 nm
absorption maximum (in ClCCl): 552 nm

SMILES: CN(C)/C=N\c1ccc2c3c(cccc13)C(=O)c1ccccc1-2
absorption maximum (in C1CCOC1): 459 nm
absorption maximum (in CCCCCC): 437 nm
absorption maximum (in CCO): 471 nm
absorption maximum (in CCOC(C)=O): 459 nm
absorption maximum (in CN(C)C=O): 479 nm
absorption maximum (in CO): 470 nm
absorption maximum (in Cc1ccccc1): 454 nm
absorption maximum (in ClC(Cl)(Cl)Cl): 448 nm
absorption maximum (in ClC(Cl)Cl): 464 nm
absorption maximum (in ClCCl): 467 nm
absorption maximum (in c1ccccc1): 456 nm

SMILES: COc1ccc2c(c1)c1cc(OC)ccc1n2-c1nc2ccccc2nc1-n1c2ccc(OC)cc2c2cc(OC)ccc21
absorption maximum (in Cc1ccccc1): 437 nm

SMILES: CCC1(CC)c2cc(B(c3c(C)cc(C)cc3C)c3c(C)cc(C)cc3C)ccc2-c2c1c1c(c3c2C(CC)(CC)c2cc(N(c4ccccc4)c4ccccc4)ccc2-3)C(CC)(CC)c2cc(B(c3c(C)cc(C)cc3C)c3c(C)cc(C)cc3C)ccc2-1
absorption maximum (in C1CCOC1): 362 nm
absorption maximum (in CC#N): 359 nm
absorption maximum (in CC(C)=O): 360 nm
absorption maximum (in CCCCCC): 361 nm
absorption maximum (in CCCO): 360 nm
absorption maximum (in CCO): 360 nm
absorption maximum (in Cc1ccccc1): 363 nm
absorption maximum (in ClC(Cl)Cl): 364 nm

SMILES: CCCCCCn1c2cc(/C=C/c3ccccc3)ccc2c2ccc(/C=C/c3ccccc3)cc21
absorption maximum (in ClC(Cl)Cl): 390.62 nm

SMILES: O=c1c2ccccc2n2c3ccccc3c(=O)c3cccc1c32
absorption maximum (in Cc1ccccc1): 432.96 nm

SMILES: COc1ccc(C#Cc2nc3ccccc3nc2-c2cn(C)c3ccccc23)cc1
absorption maximum (in C1CCOC1): 408 nm
absorption maximum (in CC#N): 407 nm
absorption maximum (in CC(C)=O): 408 nm
absorption maximum (in CC(C)O): 415 nm
absorption maximum (in CCO): 415 nm
absorption maximum (in CCOC(C)=O): 405 nm
absorption maximum (in CO): 415 nm
absorption maximum (in Cc1ccccc1): 407 nm
absorption maximum (in ClCCl): 408 nm

SMILES: CC1=c2cc3c(cc2=[N+]2C1=Cc1c4ccccc4c(C)n1[B-]2(F)F)C1=Cc2c4ccccc4c(C)n2[B-](F)(F)[N+]1=C3C
absorption maximum (in ClC(Cl)Cl): 848 nm

SMILES: COc1ccc(N(c2ccc(OC)cc2)c2ccc3c(c2)C2(c4cc(N(c5ccc(OC)cc5)c5ccc(OC)cc5)ccc4C=C3)c3ccccc3-c3ccccc32)cc1
absorption maximum (in ClCCl): 414 nm

SMILES: C(=C\c1ccc(-c2ccc(/C=C/c3ccc(-n4c5ccccc5c5ccccc54)cc3)s2)s1)/c1ccc(-n2c3ccccc3c3ccccc32)cc1
absorption maximum (in Cc1ccccc1): 440.22 nm

SMILES: CCn1c(-c2ccc(-c3ccc(-c4ccc(-c5n(CC)c6ccccc6[n+]5CC)cc4)cc3)cc2)[n+](CC)c2ccccc21
absorption maximum (in O): 305 nm

SMILES: CCCC1=Cc2nc1ccc1[nH]c(cc1CCO)c1nc(ccc3[nH]c2cc3CCC)C(CCO)=C1
absorption maximum (in Cc1ccccc1): 638 nm

SMILES: Oc1ccccc1
absorption maximum (in C1CCCCC1): 265.96 nm

SMILES: Cn1nc(-c2ccccc2)cc1-c1ccccc1
absorption maximum (in ClCCl): 254 nm

SMILES: CC(C)(C)c1ccc2c(c1)c1cc(C(C)(C)C)ccc1n2-c1cc(-n2c3ccc(C(C)(C)C)cc3c3cc(C(C)(C)C)ccc32)c(-n2c3ccc(C(C)(C)C)cc3c3cc(C(C)(C)C)ccc32)c(C#N)c1-n1c2ccc(C(C)(C)C)cc2c2cc(C(C)(C)C)ccc21
absorption maximum (in Cc1ccccc1): 422.84 nm

SMILES: COc1ccc(C#Cc2ccc(C#Cc3ccc(P(=O)(c4ccc(C#Cc5ccc(C#Cc6ccc(OC)cc6)cc5)cc4)c4ccc(C#Cc5ccc(C#Cc6ccc(OC)cc6)cc5)cc4)cc3)cc2)cc1
absorption maximum (in C1CCCCC1): 335 nm
absorption maximum (in C1COCCO1): 336 nm
absorption maximum (in CC#N): 334 nm
absorption maximum (in CCO): 336 nm
absorption maximum (in CS(C)=O): 338 nm
absorption maximum (in ClC(Cl)Cl): 338 nm
absorption maximum (in ClCCl): 338 nm

SMILES: CN(C)c1ccc2cc(C3=[O+][B-](F)(F)OC(c4ccc(C#N)cc4)=C3)ccc2c1
absorption maximum (in C1CCOC1): 525 nm
absorption maximum (in CC#N): 539 nm
absorption maximum (in CC(C)=O): 533 nm
absorption maximum (in CS(C)=O): 559 nm
absorption maximum (in Cc1ccccc1): 519 nm
absorption maximum (in ClC(Cl)Cl): 532 nm
absorption maximum (in ClCCl): 539 nm

SMILES: CCN(CC)c1ccc(/C=C/c2cc(/C=C/c3ccc(N(CC)CC)cc3)nc(N)n2)cc1
absorption maximum (in Cc1ccccc1): 418 nm
absorption maximum (in ClC(Cl)Cl): 433 nm

SMILES: CCCCCCC(CCCCCC)N1C(=O)c2cccc3c(-c4ccc(OC)c5cccc(C)c45)ccc(c23)C1=O
absorption maximum (in CCCCCC): 326.6 nm
absorption maximum (in CCCCCCCCCCCCCC): 327 nm
absorption maximum (in CCCCCCCCCCCO): 329 nm
absorption maximum (in CCCCO): 327.8 nm
absorption maximum (in CN(C)C=O): 328.8 nm
absorption maximum (in Cc1ccccc1): 328.8 nm
absorption maximum (in ClC(Cl)Cl): 329 nm

SMILES: CN(C)c1ccc(-c2c(/C=C3/C=Cc4ccccc4N3Cc3ccccc3)c(=O)c2=O)cc1
absorption maximum (in C1CCCCC1): 358 nm
absorption maximum (in Cc1ccccc1): 364 nm
absorption maximum (in ClCCl): 511 nm

SMILES: CCCCCCCCC1(CCCCCCCC)c2ccccc2-c2ccc(-c3nnc(-c4ccc(-n5c6ccc(C(C)(C)C)cc6c6cc(C(C)(C)C)ccc65)cc4)o3)cc21
absorption maximum (in Cc1ccccc1): 352 nm

SMILES: CC(C)(C)NC(=O)c1ccc(F)c2ccc3c4ccccc4c4ccccc4c3c12
absorption maximum (in ClCCl): 334 nm

From the Deep4Chem optical property database
